For one assay, the system named is HUVEC. The assay is described as follows: SPP-induced intracellular calcium in HUVEC (Indo-1 fluorescence). It counts as cell-based, human. The settings on record: HUVEC stimulated with SPP. The protocol:
Functional assays were used to test for the presence of Gi-coupled and Gq-coupled SPP receptors in HUVEC. First, intracellular calcium levels were measured in response to SPP. For these experiments, cells were grown on 100-mm tissue culture dishes and loaded with the fluorescent calcium-sensitive dye, Indo-1 acetoxymethyl ester (Indo-1/AM, 5 μg/mL; Molecular Probes, Inc., Eugene, Oreg.), for 30 min at 37° C. Cells were then washed with medium M199, briefly trypsinized (0.05% porcine trypsin/0.02% EDTA in HBSS (JRH Biosciences, Lenexa, Kans.), and the trypsin activity was immediately neutralized with soybean trypsin inhibitor (5 μg/mL, Sigma Chemical Co., St. Louis, Mo.). Following centrifugation (250 g×5 min), cells were resuspended in M199 medium to a density of 2.7×10^5 cells/mL. Cells were then stimulated with different doses of SPP. Some cells were pretreated with the Gi inhibitor pertussis toxin (PTx, 500 ng-/mL) for 16 hours. Calcium ion concentration was then quantified by measuring changes in indo-1 fluorescence in 2 mL of cell suspension by a Hitachi F-2000 fluorescence Spectrophotometer with constant stirring. Fluorescence emission was monitored at 400 and 475 nm with excitation at 352 nm. [Ca^+2]1 was calculated as described in Volpi and Berlin, J. Cell Biol., Vol. 107, 2533-39 (1988).
Background: Calcium assays in cells follow changes in intracellular calcium, usually with a dye or a luminescent sensor.

For a further assay, the system named is EDG-1. Briefly: Phosphorylation of endogenous EDG-1 in 32P-labeled HUVEC. In kind it is cell-based, human. The settings on record: S1P 5-60 min. The protocol: (Upper panel) Normal HUVEC cells were labelled with [^32P]-orthophosphate, and stimulated with 100 nM S1P for indicated times. Cell extracts were immunoprecipitated with the affinity-purifed anti-EDG-1 IgY, separated on a SDS-PAGE and autoradiographed. (Middle panel) Some cells were treated with 10 μM LY294002 or 100 nM Wortmannin prior to stimulation with S1P and EDG-1 phosphorylation was examined as above. (Lower panel) Some cells were transduced with 100 MOI of wild-type (wt)-Akt, dominant negative (dn)-Akt or the β-gal virus for 12 h prior to stimulation with S1P. EDG-1 phosphorylation was examined as above.
To label the EDG-1 receptor in HUVEC and HEK293EDG-1 cells, they were pre-incubated in phosphate-free DMEM (GIBCO-BRL) for 2 hr. Subsequently, cells were labeled with [^32P] orthophosphate (80 μCl/ml) for 3 hr. To examine the effect of P1-3 kinase, cultures were treated with wortmannin (100 nM) or LY294002 (10 μM) during tine last hour of labeling. After SPP stimulation, ^32P-labeled EDG-1 receptor was immunoprecipitated with either chicken anti-EDG-1 1gY or anti-M2, resolved on SDS-PAGE, and visualized by autoradiography.
Chicken anti-human EDG-1 antibodies against human EDG-1 polypeptide expressed in E. coli were raised in Aves Labs, Tigard, Oreg. This antibody specifically detected EDG-1 polypeptide in HUVEC cells and transfected HEK293 cells. […]

This is an account of results in US20020142982A1, “Method for regulating angiogenesis” (priority 1999, published 2002).

Consider `CCCCCCCCCCCCC/C=C/[C@@H](O)[C@@H](N)COP(=O)(O)O` [SPP, sphingosine-1-phosphate], for which the intracellular calcium response entry in the assay on HUVEC was “robust calcium response”. In the assay on EDG-1, the “radiolabeling of the endogenous EDG-1 polypeptide” value is on record as “increased”.
